Experimental data reported in patent US20260109707A1, “HETEROBIFUNCTIONAL COMPOUNDS AND METHODS OF TREATING DISEASE” (Halda Therapeutics OpCo. Inc., priority 2022, published 2026).
Read-outs that look alike come from different tables or passages of the source.

How the values were obtained:
[1] = test system: T-Rex 293 cell line SC3 cells having increased expression of androgen receptor protein due to exposure to doxycycline; experiment: Cellular growth inhibition assay, T-Rex 293 SC3 cells with doxycycline (CellTiter-Glo, 72 hours); format: cell-based; details: T-Rex 293 SC3 cells with increased androgen receptor expression due to doxycycline (10 ng/mL)
How it was run: (§1)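 Doxycycline (10 ng/mL) was either included or omitted to toggle wild-type androgen receptor expression in SC3 cells, a T-Rex 293 clone, grown in stripped-serum, phenol red-free medium. After 72 hours with compound, viable cells were quantified by CellTiter-Glo 2.0.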

[2] = test system: T-Rex 293 cell line SC3 cells lacking increased expression of androgen receptor protein; experiment: Cellular growth inhibition assay, T-Rex 293 SC3 cells without doxycycline (CellTiter-Glo, 72 hours); format: cell-based; details: T-Rex 293 cell line SC3 cells not exposed to doxycycline (lacking increased androgen receptor expression)
How it was run: as §1

VCaP cells = experiment: Cellular growth inhibition assay for VCaP cells (CellTiter-Glo, 72 hours); format: cell-based, human
How it was run: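 Luminescent viability signal after 72 h of compound exposure gave GI50 values by four-parameter nonlinear regression. Compounds were added in 0.5% DMSO to cells plated 24 h earlier at 5000/well in DMEM containing 10% FBS.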

T47D cells = experiment: Cellular growth inhibition assay for T47D cells (CellTiter-Glo, 72 hours); format: cell-based, human; details: 72 hours treatment
How it was run: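 Growth inhibition as GI50, fitted with four parameters to CellTiter-Glo luminescence after 72 h of compound exposure (0.5% DMSO). Cells were T47D, grown in insulin-supplemented (0.2 units/mL) DMEM with 10% FBS and treated one day post-seeding.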

Structure (SMILES) | GI50 ([1]; 72 h) [nM] | GI50 ([2]; 72 h) [nM] | GI50 (VCaP cells; Homo sapiens, VCaP, 72 h) [nM] | GI50 (T47D cells; Homo sapiens, T47D, 72 h) [nM] | GI50 [1] [nM] | GI50 [2] [nM] | GI50 (VCaP cells) [nM] | GI50 (T47D cells) [nM]
Cc1sc2c(c1C)C(c1ccc([C@@H]3C[C@H]3C3CC4(CCN(c5ccc(C(=O)N[C@H]6CC[C@H](Oc7ccc(C#N)c(Cl)c7)CC6)nn5)CC4)C3)cc1)=N[C@@H](Cc1ncco1)c1nnc(C)n1-2 [I-201] | < 500 | > 3000 | < 500 | < 500 | – | – | – | –
Cc1sc2c(c1C)C(c1ccc([C@H]3C[C@@H]3CC3CCCN(c4ccc(C(=O)N[C@H]5CC[C@H](Oc6ccc(C#N)c(Cl)c6)CC5)nn4)C3)cc1)=N[C@@H](Cc1ncco1)c1nnc(C)n1-2 (stereo partly shown) [I-202] | < 500 | < 500 | < 500 | < 500 | – | – | – | –
Cc1sc2c(c1C)C(c1ccc(OC[C@H]3C[C@]4(CCCN(c5ccc(C(=O)N[C@H]6CC[C@H](Oc7ccc(C#N)c(Cl)c7)CC6)nn5)C4)C3)cc1)=N[C@@H](Cc1ncco1)c1nnc(C)n1-2 [I-206] | – | – | – | – | 500 to 1500 | > 3000 | > 3000 | > 3000
Cc1sc2c(c1C)C(c1ccc(CC[C@H]3C[C@@]4(CCCN(c5ccc(C(=O)N[C@H]6CC[C@H](Oc7ccc(C#N)c(Cl)c7)CC6)nn5)C4)C3)nc1)=N[C@@H](Cc1ncco1)c1nnc(C)n1-2 [I-207] | < 500 | < 500 | < 500 | < 500 | – | – | – | –
Cc1sc2c(c1C)C(c1ccc(C3CN(C4CCN(c5ccc(C(=O)N[C@H]6CC[C@H](Oc7ccc(C#N)c(Cl)c7)CC6)nn5)C4)C3)cc1)=N[C@@H](Cc1ncco1)c1nnc(C)n1-2 (stereo partly shown) [I-209] | < 500 | < 500 | < 500 | < 500 | – | – | – | –
Cc1sc2c(c1C)C(c1ccc(C[C@H]3C[C@@]4(CN(c5ccc(C(=O)N[C@H]6CC[C@H](Oc7ccc(C#N)c(Cl)c7)CC6)nn5)CCO4)C3)cc1)=N[C@@H](Cc1ncco1)c1nnc(C)n1-2 [I-210] | > 3000 | > 3000 | > 3000 | 500 to 1500 | – | – | – | –
Cc1sc2c(c1C)C(c1ccc(C[C@H]3C[C@]4(CN(c5ccc(C(=O)N[C@H]6CC[C@H](Oc7ccc(C#N)c(Cl)c7)CC6)nn5)CCO4)C3)cc1)=N[C@@H](Cc1ncco1)c1nnc(C)n1-2 [I-211] | < 500 | < 500 | < 500 | < 500 | – | – | – | –
Cc1sc2c(c1C)C(c1ccc(C3CN(C4CCN(c5ccc(C(=O)N[C@H]6CC[C@H](Oc7ccc(C#N)c(Cl)c7)CC6)nn5)CC4)C3)cc1)=N[C@@H](Cc1ncco1)c1nnc(C)n1-2 [I-212] | < 500 | < 500 | < 500 | < 500 | – | – | – | –
Cc1sc2c(c1C)C(c1ccc(CC[C@H]3CC[C@@]4(CCCN(c5ccc(C(=O)N[C@H]6CC[C@H](Oc7ccc(C#N)c(Cl)c7)CC6)nn5)C4)C3)cc1)=N[C@@H](Cc1ncco1)c1nnc(C)n1-2 [I-213] | > 3000 | > 3000 | > 3000 | > 3000 | – | – | – | –
Cc1sc2c(c1C)C(c1ccc(CC[C@@H]3CC[C@@]4(CCCN(c5ccc(C(=O)N[C@H]6CC[C@H](Oc7ccc(C#N)c(Cl)c7)CC6)nn5)C4)C3)cc1)=N[C@@H](Cc1ncco1)c1nnc(C)n1-2 [I-214] | > 3000 | > 3000 | > 3000 | > 3000 | – | – | – | –
Cc1sc2c(c1C)C(c1ccc(CC[C@H]3CC[C@@]4(CCCN(c5ccc(C(=O)N[C@H]6CC[C@H](Oc7ccc(C#N)c(Cl)c7)CC6)nn5)C4)C3)cc1)=N[C@H](Cc1ncco1)c1nnc(C)n1-2 [I-215] | < 500 | < 500 | < 500 | < 500 | – | – | – | –
Cc1sc2c(c1C)C(c1ccc(CC[C@@H]3CC[C@@]4(CCCN(c5ccc(C(=O)N[C@H]6CC[C@H](Oc7ccc(C#N)c(Cl)c7)CC6)nn5)C4)C3)cc1)=N[C@H](Cc1ncco1)c1nnc(C)n1-2 [I-216] | < 500 | < 500 | < 500 | < 500 | – | – | – | –
Cc1sc2c(c1C)C(c1ccc(O[C@H]3CCCN(c4ccc(C(=O)N[C@H]5CC[C@H](Oc6ccc(C#N)c(Cl)c6)CC5)nn4)C3)cc1)=N[C@@H](Cc1ncco1)c1nnc(C)n1-2 [I-217] | < 500 | < 500 | 1500 to 3000 | > 3000 | – | – | – | –
Cc1sc2c(c1C)C(c1ccc(OC[C@@H]3CCCN(c4ccc(C(=O)N[C@H]5CC[C@H](Oc6ccc(C#N)c(Cl)c6)CC5)nn4)C3)cc1)=N[C@@H](Cc1ncco1)c1nnc(C)n1-2 [I-218] | < 500 | < 500 | < 500 | 500 to 1500 | – | – | – | –
Cc1sc2c(c1C)C(c1ccc(OC[C@H]3CCCN(c4ccc(C(=O)N[C@H]5CC[C@H](Oc6ccc(C#N)c(Cl)c6)CC5)nn4)C3)cc1)=N[C@@H](Cc1ncco1)c1nnc(C)n1-2 [I-219] | < 500 | 1500 to 3000 | 500 to 1500 | 1500 to 3000 | – | – | – | –
Cc1sc2c(c1C)C(c1ccc(O[C@H]3C[C@@]4(CCCN(c5ccc(C(=O)N[C@H]6CC[C@H](Oc7ccc(C#N)c(Cl)c7)CC6)nn5)C4)C3)nc1)=N[C@@H](Cc1ncco1)c1nnc(C)n1-2 [I-220] | < 500 | > 3000 | 500 to 1500 | 500 to 1500 | – | – | – | –
Cc1sc2c(c1C)C(c1ccc(O[C@H]3C[C@@]4(CCCN(c5ccc(C(=O)N[C@H]6CC[C@H](Oc7ccc(C#N)c(Cl)c7)CC6)nn5)C4)C3)nc1)=N[C@H](Cc1ncco1)c1nnc(C)n1-2 [I-221] | < 500 | > 3000 | > 3000 | > 3000 | – | – | – | –
Cc1sc2c(c1C)C(c1ccc(CCN3CCOC4(CCN(c5ccc(C(=O)N[C@H]6CC[C@H](Oc7ccc(C#N)c(Cl)c7)CC6)nn5)CC4)C3)cc1)=N[C@@H](Cc1ncco1)c1nnc(C)n1-2 [I-222] | < 500 | 500 to 1500 | < 500 | < 500 | – | – | – | –
Cc1sc2c(c1C)C(c1ccc(OC3CC4(CCN(c5ccc(C(=O)N[C@H]6CC[C@H](Oc7ccc(C#N)c(Cl)c7)CC6)nn5)CC4)C3)nc1)=N[C@@H](Cc1ncco1)c1nnc(C)n1-2 [I-223] | < 500 | 500 to 1500 | < 500 | 500 to 1500 | – | – | – | –
Cc1sc2c(c1C)C(c1ccc(O[C@@H]3CCCN(c4ccc(C(=O)N[C@H]5CC[C@H](Oc6ccc(C#N)c(Cl)c6)CC5)nn4)C3)cc1)=N[C@@H](Cc1ncco1)c1nnc(C)n1-2 [I-224] | < 500 | > 3000 | < 500 | < 500 | – | – | – | –
Cc1sc2c(c1C)C(c1ccc(C3CCC(N4CCCN(c5ccc(C(=O)N[C@H]6CC[C@H](Oc7ccc(C#N)c(Cl)c7)CC6)nn5)CC4)CC3)cc1)=N[C@H](Cc1ncco1)c1nnc(C)n1-2 (stereo partly shown) [I-225] | < 500 | < 500 | < 500 | < 500 | – | – | – | –
Cc1sc2c(c1C)C(c1ccc(OC3CC4(CCN(c5ccc(C(=O)N[C@H]6CC[C@H](Oc7ccc(C#N)c(Cl)c7)CC6)nn5)CC4)C3)cc1)=N[C@@](C)(C(C)c1ncco1)c1nnc(C)n1-2 (stereo partly shown) [I-226] | < 500 | > 3000 | > 3000 | 500 to 1500 | – | – | – | –
Cc1sc2c(c1C)C(c1ccc(C#CC3CC4(C3)CN(c3ccc(C(=O)N[C@H]5CC[C@H](Oc6ccc(C#N)c(Cl)c6)CC5)nn3)C4)cc1)=N[C@H](Cc1ncco1)c1nnc(C)n1-2 [I-227] | < 500 | > 3000 | < 500 | > 3000 | – | – | – | –
Cc1sc2c(c1C)C(c1ccc(CNC(=O)N3CCC(c4ccc(C(=O)N[C@H]5CC[C@H](Oc6ccc(C#N)c(Cl)c6)CC5)nn4)CC3)cc1)=N[C@@H](Cc1ncco1)c1nnc(C)n1-2 [I-228] | < 500 | > 3000 | < 500 | < 500 | – | – | – | –
Cc1sc2c(c1C)C(c1ccc(CNC(=O)[C@H]3CCCN(c4ccc(C(=O)N[C@H]5CC[C@H](Oc6ccc(C#N)c(Cl)c6)CC5)nn4)C3)cc1)=N[C@@H](Cc1ncco1)c1nnc(C)n1-2 [I-229] | < 500 | 500 to 1500 | 500 to 1500 | 1500 to 3000 | – | – | – | –
